Values of other authors as cited in US20060163529A1, “Water-based coolant fluid for engine applications” (Neste Oil Oyj, priority 2002, published 2006).

System: rats
Conditions: tested orally in rats

| SMILES | LD50 |
| --- | --- |
| C[N+](C)(C)CC(=O)O [Trimethyl glycine, trimethyl glycine] | 11 200 mg/kg |
| CC(O)CO (centres unmarked) [Propylene glycol, propylene glycol] | 20 000 mg/kg |
